ChEMBL document CHEMBL5291721, “A preclinical secondary pharmacology resource illuminates target-adverse drug reaction associations of marketed drugs” (Nat Commun, 2023)

Tests used:
[1] = target: T1, Alpha-2A adrenergic receptor (Homo sapiens, UniProt P08913); assay type: functional, cell-based
T1 sequence (P08913 whole entry): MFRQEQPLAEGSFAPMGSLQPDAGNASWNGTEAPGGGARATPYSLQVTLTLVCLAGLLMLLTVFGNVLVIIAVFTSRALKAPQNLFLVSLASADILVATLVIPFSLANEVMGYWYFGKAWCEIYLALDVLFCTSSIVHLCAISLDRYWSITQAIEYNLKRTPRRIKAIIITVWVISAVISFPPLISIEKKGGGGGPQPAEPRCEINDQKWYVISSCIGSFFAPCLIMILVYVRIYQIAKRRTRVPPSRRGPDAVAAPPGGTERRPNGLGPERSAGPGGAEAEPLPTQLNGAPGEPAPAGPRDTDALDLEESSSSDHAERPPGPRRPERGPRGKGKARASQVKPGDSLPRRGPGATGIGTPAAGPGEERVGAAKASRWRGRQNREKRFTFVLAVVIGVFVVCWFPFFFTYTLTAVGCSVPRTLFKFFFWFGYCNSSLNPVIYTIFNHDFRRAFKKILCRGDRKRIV

[2] = target: T2, Gamma-aminobutyric acid receptor subunit alpha-1 (Rattus norvegicus, UniProt P62813)
[3] = target: 5-hydroxytryptamine receptor 2A (Homo sapiens, UniProt P28223); assay type: functional, cell-based
[4] = target: Sodium-dependent dopamine transporter (Homo sapiens, UniProt Q01959)
[5] = target: T3, Beta-2 adrenergic receptor (Homo sapiens, UniProt P07550)
[6] = target: Neuronal acetylcholine receptor subunit alpha-4 (Homo sapiens, UniProt P43681)
[7] = target: Voltage-dependent L-type calcium channel subunit alpha-1C (Rattus norvegicus, UniProt P22002); assay type: functional
[8] = target: T4, Equilibrative nucleoside transporter 1 (Homo sapiens, UniProt Q99808)
T4 sequence (Q99808 whole entry): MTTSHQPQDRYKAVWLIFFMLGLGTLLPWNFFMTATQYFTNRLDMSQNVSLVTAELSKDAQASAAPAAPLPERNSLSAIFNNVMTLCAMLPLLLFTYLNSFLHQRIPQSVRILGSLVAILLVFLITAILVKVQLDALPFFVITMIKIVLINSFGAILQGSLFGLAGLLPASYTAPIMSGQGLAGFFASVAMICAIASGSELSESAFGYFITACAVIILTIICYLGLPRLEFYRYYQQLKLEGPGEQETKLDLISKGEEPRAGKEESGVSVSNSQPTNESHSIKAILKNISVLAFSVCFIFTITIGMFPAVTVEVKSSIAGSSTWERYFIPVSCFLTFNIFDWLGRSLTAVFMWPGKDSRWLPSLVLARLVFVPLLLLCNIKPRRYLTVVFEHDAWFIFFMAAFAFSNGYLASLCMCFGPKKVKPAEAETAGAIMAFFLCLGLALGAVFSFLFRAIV

[9] = target: T1, Alpha-2A adrenergic receptor; assay type: functional, cell-based; remark: listed apart in the source
[10] = target: T2, Gamma-aminobutyric acid receptor subunit alpha-1; remark: listed apart in the source
[11] = target: Sodium-dependent noradrenaline transporter (Homo sapiens, UniProt P23975)
[12] = target: Prostaglandin G/H synthase 1 (Homo sapiens, UniProt P23219); assay type: functional
[13] = target: Vascular endothelial growth factor receptor 2 (Homo sapiens, UniProt P35968); assay type: functional
D(3) dopamine receptor = D(3) dopamine receptor (Homo sapiens, UniProt P35462)
[14] = target: T5, Muscarinic acetylcholine receptor M2 (Homo sapiens, UniProt P08172); assay type: functional, cell-based
T5 sequence (P08172 whole entry): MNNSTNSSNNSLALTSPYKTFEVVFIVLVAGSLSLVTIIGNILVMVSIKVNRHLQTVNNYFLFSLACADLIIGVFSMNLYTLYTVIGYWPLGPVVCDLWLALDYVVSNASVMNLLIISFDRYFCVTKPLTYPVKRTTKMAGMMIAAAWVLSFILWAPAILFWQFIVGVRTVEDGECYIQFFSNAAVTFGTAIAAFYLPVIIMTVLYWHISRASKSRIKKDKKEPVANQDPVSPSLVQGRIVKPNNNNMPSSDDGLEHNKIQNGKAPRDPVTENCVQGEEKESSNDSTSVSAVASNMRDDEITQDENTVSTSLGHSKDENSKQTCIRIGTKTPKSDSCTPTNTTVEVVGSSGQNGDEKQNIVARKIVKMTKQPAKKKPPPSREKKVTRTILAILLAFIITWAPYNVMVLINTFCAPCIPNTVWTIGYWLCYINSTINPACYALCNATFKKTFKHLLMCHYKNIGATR

Cannabinoid receptor 1 = Cannabinoid receptor 1 (Homo sapiens, UniProt P21554); assay type: functional, cell-based
[15] = target: T3, Beta-2 adrenergic receptor; assay type: functional, cell-based
[16] = target: T6, Alpha-1A adrenergic receptor (Homo sapiens, UniProt P35348); assay type: functional, cell-based
T6 sequence (P35348 whole entry): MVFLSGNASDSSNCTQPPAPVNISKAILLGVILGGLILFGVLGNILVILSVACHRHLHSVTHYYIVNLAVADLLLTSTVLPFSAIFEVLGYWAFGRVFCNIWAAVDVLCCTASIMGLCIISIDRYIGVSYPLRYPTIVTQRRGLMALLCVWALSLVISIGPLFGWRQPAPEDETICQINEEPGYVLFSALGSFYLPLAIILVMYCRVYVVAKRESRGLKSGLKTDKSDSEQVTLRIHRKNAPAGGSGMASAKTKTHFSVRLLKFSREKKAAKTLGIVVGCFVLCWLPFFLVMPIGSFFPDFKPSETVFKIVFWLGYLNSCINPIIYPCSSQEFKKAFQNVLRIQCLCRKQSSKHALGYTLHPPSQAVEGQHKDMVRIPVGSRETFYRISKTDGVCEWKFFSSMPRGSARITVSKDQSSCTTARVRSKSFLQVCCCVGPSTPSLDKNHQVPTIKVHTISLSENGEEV

[17] = target: T6, Alpha-1A adrenergic receptor; assay type: functional, cell-based; remark: listed apart in the source

Measured: AC50
Further: assay procedure not described here.

D(3) dopamine receptor, sequence (P35462 whole entry): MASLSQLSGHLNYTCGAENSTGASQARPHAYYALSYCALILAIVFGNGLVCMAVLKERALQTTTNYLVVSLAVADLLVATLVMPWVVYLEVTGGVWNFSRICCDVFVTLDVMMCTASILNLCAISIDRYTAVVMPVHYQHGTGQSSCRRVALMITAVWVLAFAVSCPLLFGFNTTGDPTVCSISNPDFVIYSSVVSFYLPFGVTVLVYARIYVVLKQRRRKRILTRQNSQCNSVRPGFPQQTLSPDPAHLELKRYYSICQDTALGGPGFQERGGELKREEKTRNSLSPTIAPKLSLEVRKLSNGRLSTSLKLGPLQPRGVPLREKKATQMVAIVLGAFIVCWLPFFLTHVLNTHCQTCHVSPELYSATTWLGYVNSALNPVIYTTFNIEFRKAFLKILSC
Sodium-dependent noradrenaline transporter, sequence (P23975 whole entry): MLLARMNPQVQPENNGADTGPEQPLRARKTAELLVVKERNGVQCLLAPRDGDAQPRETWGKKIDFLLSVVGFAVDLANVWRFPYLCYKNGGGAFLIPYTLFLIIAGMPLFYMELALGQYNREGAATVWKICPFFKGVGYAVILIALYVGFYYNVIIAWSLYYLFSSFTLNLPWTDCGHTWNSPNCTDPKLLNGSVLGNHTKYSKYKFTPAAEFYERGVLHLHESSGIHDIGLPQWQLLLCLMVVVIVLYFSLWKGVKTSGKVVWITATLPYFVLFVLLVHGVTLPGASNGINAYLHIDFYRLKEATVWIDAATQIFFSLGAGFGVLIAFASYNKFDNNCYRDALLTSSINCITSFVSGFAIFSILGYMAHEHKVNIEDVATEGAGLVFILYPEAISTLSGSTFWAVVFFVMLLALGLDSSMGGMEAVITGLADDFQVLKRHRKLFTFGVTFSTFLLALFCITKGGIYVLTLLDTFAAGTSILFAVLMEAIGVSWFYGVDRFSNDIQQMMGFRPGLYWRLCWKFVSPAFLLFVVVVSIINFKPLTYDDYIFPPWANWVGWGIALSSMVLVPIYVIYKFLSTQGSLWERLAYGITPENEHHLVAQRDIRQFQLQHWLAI
T3 sequence (P07550 whole entry): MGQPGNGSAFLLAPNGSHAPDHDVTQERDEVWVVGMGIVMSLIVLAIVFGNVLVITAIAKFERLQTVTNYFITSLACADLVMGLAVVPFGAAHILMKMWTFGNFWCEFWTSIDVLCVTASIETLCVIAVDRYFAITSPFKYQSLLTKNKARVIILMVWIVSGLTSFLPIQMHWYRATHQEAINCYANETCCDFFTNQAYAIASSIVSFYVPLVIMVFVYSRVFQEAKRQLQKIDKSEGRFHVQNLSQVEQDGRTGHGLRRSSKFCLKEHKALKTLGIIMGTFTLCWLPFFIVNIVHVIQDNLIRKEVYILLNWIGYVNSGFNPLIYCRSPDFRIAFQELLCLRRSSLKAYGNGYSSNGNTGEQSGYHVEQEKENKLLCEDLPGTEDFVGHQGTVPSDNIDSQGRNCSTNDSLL
Sodium-dependent dopamine transporter, sequence (Q01959 whole entry): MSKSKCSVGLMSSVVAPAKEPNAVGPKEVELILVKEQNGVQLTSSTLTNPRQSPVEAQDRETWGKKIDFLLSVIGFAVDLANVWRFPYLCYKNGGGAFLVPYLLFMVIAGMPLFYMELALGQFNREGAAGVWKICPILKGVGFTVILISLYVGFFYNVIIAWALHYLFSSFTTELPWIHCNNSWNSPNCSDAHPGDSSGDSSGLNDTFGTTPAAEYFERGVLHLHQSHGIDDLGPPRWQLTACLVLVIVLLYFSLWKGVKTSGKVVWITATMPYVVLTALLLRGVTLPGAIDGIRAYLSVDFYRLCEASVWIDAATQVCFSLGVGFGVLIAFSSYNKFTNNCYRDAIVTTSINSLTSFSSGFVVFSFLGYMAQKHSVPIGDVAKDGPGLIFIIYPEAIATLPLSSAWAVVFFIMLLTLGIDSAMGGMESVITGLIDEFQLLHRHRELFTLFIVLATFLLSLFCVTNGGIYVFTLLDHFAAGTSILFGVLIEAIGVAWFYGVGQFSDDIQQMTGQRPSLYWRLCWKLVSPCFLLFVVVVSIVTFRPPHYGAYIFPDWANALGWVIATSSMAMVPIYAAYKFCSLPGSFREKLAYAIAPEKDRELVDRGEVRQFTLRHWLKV
Voltage-dependent L-type calcium channel subunit alpha-1C, sequence (P22002 whole entry): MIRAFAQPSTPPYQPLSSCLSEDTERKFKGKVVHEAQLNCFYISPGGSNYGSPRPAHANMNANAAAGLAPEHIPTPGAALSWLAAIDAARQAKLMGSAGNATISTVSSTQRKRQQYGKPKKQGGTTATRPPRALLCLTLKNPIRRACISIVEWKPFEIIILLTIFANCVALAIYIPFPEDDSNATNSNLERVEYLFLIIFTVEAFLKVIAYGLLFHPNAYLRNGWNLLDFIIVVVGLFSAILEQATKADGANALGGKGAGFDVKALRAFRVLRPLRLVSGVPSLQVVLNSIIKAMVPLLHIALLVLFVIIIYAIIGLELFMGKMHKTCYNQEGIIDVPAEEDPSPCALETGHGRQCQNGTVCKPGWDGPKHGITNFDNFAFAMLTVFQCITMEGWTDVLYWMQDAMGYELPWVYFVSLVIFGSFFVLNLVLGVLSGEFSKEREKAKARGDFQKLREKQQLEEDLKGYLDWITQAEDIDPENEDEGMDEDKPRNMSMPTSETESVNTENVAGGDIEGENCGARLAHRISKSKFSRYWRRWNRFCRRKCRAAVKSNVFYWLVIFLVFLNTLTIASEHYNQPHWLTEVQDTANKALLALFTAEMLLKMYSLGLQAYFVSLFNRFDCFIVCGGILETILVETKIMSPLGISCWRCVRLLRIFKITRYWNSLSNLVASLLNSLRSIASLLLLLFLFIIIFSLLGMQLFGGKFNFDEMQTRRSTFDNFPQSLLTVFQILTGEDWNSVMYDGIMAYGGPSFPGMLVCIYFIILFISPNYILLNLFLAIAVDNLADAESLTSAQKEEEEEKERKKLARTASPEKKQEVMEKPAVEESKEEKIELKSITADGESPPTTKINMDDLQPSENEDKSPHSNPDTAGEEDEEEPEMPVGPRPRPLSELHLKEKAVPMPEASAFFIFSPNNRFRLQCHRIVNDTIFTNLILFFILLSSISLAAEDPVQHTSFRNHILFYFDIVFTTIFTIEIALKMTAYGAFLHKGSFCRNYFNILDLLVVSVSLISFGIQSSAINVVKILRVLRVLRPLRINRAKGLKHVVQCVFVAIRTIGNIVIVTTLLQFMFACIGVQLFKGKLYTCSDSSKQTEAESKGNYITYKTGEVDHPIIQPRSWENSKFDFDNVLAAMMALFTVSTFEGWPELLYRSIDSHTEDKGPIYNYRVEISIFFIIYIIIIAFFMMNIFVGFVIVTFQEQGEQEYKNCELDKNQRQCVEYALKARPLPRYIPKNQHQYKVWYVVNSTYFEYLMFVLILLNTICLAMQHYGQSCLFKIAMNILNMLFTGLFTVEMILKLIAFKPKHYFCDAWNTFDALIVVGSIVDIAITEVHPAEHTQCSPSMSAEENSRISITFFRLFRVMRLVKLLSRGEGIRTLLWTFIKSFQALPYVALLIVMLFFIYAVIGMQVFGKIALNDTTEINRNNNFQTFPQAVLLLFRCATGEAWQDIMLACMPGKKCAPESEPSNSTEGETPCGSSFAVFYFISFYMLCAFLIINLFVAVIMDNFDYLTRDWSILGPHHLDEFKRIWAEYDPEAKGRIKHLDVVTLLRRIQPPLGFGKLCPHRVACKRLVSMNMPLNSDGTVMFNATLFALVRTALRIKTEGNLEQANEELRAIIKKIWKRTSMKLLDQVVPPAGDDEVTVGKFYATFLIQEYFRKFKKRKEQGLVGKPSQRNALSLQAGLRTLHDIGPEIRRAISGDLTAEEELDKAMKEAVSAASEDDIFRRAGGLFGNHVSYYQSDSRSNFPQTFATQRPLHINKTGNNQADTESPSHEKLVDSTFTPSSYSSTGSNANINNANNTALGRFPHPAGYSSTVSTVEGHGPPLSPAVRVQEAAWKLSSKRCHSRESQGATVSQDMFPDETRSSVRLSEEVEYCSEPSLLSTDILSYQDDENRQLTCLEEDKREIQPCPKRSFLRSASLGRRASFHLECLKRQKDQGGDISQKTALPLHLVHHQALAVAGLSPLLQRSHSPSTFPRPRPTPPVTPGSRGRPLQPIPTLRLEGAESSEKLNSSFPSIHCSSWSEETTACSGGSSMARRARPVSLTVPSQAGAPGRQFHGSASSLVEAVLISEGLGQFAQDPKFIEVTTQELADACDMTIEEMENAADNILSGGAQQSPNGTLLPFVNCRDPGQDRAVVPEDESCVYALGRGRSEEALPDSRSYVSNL
5-hydroxytryptamine receptor 2A, sequence (P28223 whole entry): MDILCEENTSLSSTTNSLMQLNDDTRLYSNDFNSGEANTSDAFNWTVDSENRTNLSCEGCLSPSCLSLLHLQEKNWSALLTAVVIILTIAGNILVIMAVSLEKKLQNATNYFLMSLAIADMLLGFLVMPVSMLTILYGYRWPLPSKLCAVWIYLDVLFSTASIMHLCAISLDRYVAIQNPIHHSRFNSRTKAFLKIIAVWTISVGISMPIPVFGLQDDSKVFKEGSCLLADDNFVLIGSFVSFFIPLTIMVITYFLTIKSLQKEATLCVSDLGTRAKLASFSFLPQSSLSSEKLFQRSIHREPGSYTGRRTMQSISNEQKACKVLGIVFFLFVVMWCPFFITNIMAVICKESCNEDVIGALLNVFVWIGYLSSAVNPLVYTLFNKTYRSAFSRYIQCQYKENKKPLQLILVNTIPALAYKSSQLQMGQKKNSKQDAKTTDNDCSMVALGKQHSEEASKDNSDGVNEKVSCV

C[N+]1(C)CCC(=C(c2ccccc2)c2ccccc2)CC1
16.2 µM: [6]
> 10 µM: [1] | [2] | [3] | [4] | [5] | [7] | [8] | [9]

Cc1cc2c(cc1S(N)(=O)=O)S(=O)(=O)CCC2
> 30 µM: [10] | [11] | [12] | [13] | D(3) dopamine receptor

C[C@H](N[C@@H](CCc1ccccc1)C(=O)O)C(=O)N1Cc2ccccc2C[C@H]1C(=O)O
> 30 µM: [10] | [11] | [12] | [13] | D(3) dopamine receptor

Cc1ccccc1-n1c(CF)nc2ccc(N)cc2c1=O [AFLOQUALONE]
> 30 µM: [4] | [5] | [6] | [8]
> 10 µM: [1] | [2] | [3] | [7] | [14] | [9]

CC1(C)S[C@@H]2[C@H](/N=C/N3CCCCCC3)C(=O)N2[C@H]1C(=O)O [AMDINOCILLIN]
> 30 µM: [10] | [11] | [13] | D(3) dopamine receptor
14.5 µM: [12]

CC(=O)[C@]1(N)Cc2c(O)c3c(c(O)c2[C@@H](O[C@H]2C[C@H](O)[C@H](O)CO2)C1)C(=O)c1ccccc1C3=O [AMRUBICIN]
3.62 µM: [12]
> 30 µM: [10] | [11] | [13] | D(3) dopamine receptor

CC(=O)OC[C@H]1O[C@@H](n2ncc(=O)[nH]c2=O)[C@H](OC(C)=O)[C@@H]1OC(C)=O [AZARIBINE]
> 30 µM: [10] | [11] | [12] | [13] | D(3) dopamine receptor

CC(O)(CS(=O)(=O)c1ccc(F)cc1)C(=O)Nc1ccc(C#N)c(C(F)(F)F)c1 (centres undefined) [BICALUTAMIDE]
> 30 µM: [10] | [11] | [12] | Cannabinoid receptor 1 | [15] | [4] | [5] | [16] | [17] | [6] | D(3) dopamine receptor | [8]
> 10 µM: [1] | [2] | [7] | [14] | [9]

CC(C)(C)NC(=O)N[C@H](C(=O)N1C[C@H]2[C@@H]([C@H]1C(=O)NC(CC1CCC1)C(=O)C(N)=O)C2(C)C)C(C)(C)C (some centres undefined) [BOCEPREVIR]
> 30 µM: [10] | [11] | [12] | [13] | D(3) dopamine receptor

NC[C@H]1CC[C@H](C(=O)Oc2ccc(CCC(=O)O)cc2)CC1 [CETRAXATE]
> 30 µM: [10] | [11] | [12] | [1] | Cannabinoid receptor 1 | [15] | [2] | [16] | [17] | [14] | D(3) dopamine receptor | [9]

N#Cc1ccc(Oc2ccc3c(c2)COB3O)cc1 [CRISABOROLE]
> 30 µM: [10] | [11] | [12] | [13] | D(3) dopamine receptor

C/C=C(/C(=C/C)c1ccc(O)cc1)c1ccc(O)cc1 [DIENESTROL]
> 10 µM: [1] | [2] | [3] | [5] | [6] | [7] | [14] | [9]
> 30 µM: [4] | [8]

CC(O)(P(=O)(O)O)P(=O)(O)O [ETIDRONIC ACID]
> 30 µM: [10] | [11] | [12] | [13] | D(3) dopamine receptor

Cc1ccc(S(=O)(=O)NC(=O)NC2CCCCC2)cc1 [GLYCYCLAMIDE]
> 30 µM: [10] | [11] | [12] | [13] | D(3) dopamine receptor

CN1CCCN(C(c2ccccc2)c2ccc(Cl)cc2)CC1 (centres undefined) [HOMOCHLORCYCLIZINE]
0.0721 µM: D(3) dopamine receptor
> 30 µM: [10] | [12] | [13]
12.9 µM: [11]

CC(COc1ccccc1)NC(C)C(O)c1ccc(O)cc1 (centres undefined) [ISOXSUPRINE]
11.2 µM: [11]
0.037 µM: D(3) dopamine receptor
> 30 µM: [10] | [12] | [13]

Cc1oc(=O)oc1COC(=O)[C@@H]1N2C(=O)[C@@H](NC(=O)[C@H](N)c3ccccc3)[C@H]2SC1(C)C [LENAMPICILLIN]
> 30 µM: [10] | [11] | [12] | [13] | D(3) dopamine receptor

C[C@@H]1C[C@H]2[C@@H]3C[C@H](F)C4=CC(=O)C=C[C@]4(C)[C@H]3[C@@H](O)C[C@]2(C)[C@@]1(O)C(=O)CO [PARAMETHASONE]
> 30 µM: [10] | [11] | [12] | [13] | D(3) dopamine receptor

CCC[C@H](N[C@@H](C)C(=O)N1[C@H](C(=O)O)C[C@@H]2CCCC[C@@H]21)C(=O)OCC [PERINDOPRIL]
> 30 µM: [10] | [11] | [12] | [13] | D(3) dopamine receptor

NNCCc1ccccc1 [PHENELZINE]
> 30 µM: [10] | [13] | D(3) dopamine receptor
10.8 µM: [11]
0.891 µM: [12]

N[C@@H](Cc1ccccc1)C(=O)O [PHENYLALANINE]
> 30 µM: [10] | [11] | [13] | D(3) dopamine receptor
28 µM: [12]

CCCn1cnc2c1c(=O)n(CCCCC(C)=O)c(=O)n2C [PROPENTOFYLLINE]
> 30 µM: [10] | [11] | [12] | [13] | D(3) dopamine receptor

CCCSc1nc(N[C@@H]2C[C@H]2c2ccc(F)c(F)c2)c2nnn([C@@H]3C[C@H](OCCO)[C@@H](O)[C@H]3O)c2n1 [TICAGRELOR]
> 30 µM: [10] | [12] | [13]
14.8 µM: [11]
0.365 µM: [8]
20.5 µM: D(3) dopamine receptor
